Test results published in ChEMBL document CHEMBL1201862, “PubChem BioAssay data set” (2004).
Active and inactive are the calls of the source. For most assays here, no stated cut-off is given here; in the data, actives have a measured EC50 and inactives only a lower limit.

Experiments:
[1] = HEK-293T cell viability reduction – luminescence, B-cell screen hits, cytotoxicity control for BCR NF-kB inhibitor project, dose response (AID 489021); type: functional, cell-based;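 further: HEK-293T cells carrying an NF-kB luciferase reporter; cells exposed to compound for about 14 hours before viability readout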
[2] = target: T1, CAAX prenyl protease 2 (Saccharomyces cerevisiae S288c, UniProt Q03530); type: biochemical
T1 sequence (Q03530 whole entry): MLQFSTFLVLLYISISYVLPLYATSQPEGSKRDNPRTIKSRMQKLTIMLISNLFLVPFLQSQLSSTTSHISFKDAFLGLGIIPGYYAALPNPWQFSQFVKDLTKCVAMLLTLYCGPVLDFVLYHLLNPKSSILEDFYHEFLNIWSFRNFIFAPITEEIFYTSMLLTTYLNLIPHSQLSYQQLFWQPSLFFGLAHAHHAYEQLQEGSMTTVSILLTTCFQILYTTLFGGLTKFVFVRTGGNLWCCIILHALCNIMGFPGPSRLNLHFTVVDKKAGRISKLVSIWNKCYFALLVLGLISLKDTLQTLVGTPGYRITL

[3] = luciferase reporter signal suppression in cells – H4 neuroglioma cells, luminescence, dose response (AID 1990); type: functional, cell-based
[4] = target: T2, Zinc finger protein mex-5 (Caenorhabditis elegans, UniProt Q9XUB2); experiment: potency of MEX-5 RNA-binding blockers – biochemical, C. elegans, fluorescence polarization, dose response (AID 1960)
T2 sequence (Q9XUB2 whole entry): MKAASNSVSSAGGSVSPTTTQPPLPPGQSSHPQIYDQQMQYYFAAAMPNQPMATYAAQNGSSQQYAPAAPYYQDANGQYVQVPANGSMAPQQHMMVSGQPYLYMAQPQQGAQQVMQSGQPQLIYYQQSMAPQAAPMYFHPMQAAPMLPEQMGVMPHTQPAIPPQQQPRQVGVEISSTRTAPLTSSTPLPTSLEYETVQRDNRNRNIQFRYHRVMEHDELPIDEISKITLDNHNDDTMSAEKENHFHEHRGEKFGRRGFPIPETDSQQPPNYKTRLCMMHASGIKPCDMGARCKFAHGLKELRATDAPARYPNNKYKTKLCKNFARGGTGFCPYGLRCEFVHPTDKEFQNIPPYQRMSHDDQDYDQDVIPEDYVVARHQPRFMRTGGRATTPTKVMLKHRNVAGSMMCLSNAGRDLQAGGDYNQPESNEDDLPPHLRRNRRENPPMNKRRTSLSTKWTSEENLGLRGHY

[5] = target: T3, RNA-binding protein pos-1 (Caenorhabditis elegans, UniProt G5EF15); experiment: disruptors of C. elegans POS-1 RNA interaction – biochemical, fluorescence polarization, dose response (AID 1964);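 further: purified POS-1 fused to maltose binding protein made in E. coli; potency of compounds blocking POS-1 binding to fluorescent RNA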
T3 sequence (G5EF15 whole entry): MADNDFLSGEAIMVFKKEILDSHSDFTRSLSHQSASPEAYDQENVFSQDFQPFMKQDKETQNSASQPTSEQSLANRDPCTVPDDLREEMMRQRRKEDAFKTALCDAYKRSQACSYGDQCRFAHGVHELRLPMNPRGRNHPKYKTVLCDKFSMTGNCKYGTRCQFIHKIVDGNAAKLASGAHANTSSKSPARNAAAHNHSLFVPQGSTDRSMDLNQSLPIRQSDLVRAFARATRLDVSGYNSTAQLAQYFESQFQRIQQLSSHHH

[6] = alpha-synuclein stem-loop luciferase translation blockers – H4 neuroglioma cells, luminescence, confirmation (AID 1988); type: functional, cell-based
[7] = Luminescence Cell-Based Dose Response HTS to Identify Inhibitors of 5'UTR Stem-Loop Driven Prion Protein mRNA Translation in H4 Neuroglioblastoma Cells. [Related pubchem assays: 1827 (Project Summary), 1813 (Primary HTS)]; type: functional

Q: For `C=CCOc1ccc(NC(=O)C(=O)NCCCn2ccnc2)cc1`, which IC50 [1] is on record?
A: > 80 µM (inactive)

Q: With `CCCn1c(O)c(N=NC(=O)CNC(=O)Cc2ccc(OC)cc2)c2ccccc21` as the compound, how does the AC50 [2] read?
A: > 100 µM (inactive)

Q: With `COc1cccc(/C=C2\SC(=S)N(CCCC(=O)NC3=NCCS3)C2=O)c1` as the compound, how does the EC50 [3] read?
A: 11.8 µM (active)

Q: And the IC50 [1]?
A: > 80 µM (inactive)

Q: What about the EC50 [4] of the same compound?
A: > 300 µM (not active)

Q: And the EC50 [5]?
A: > 300 µM (not active)

Q: What about the EC50 [6] of the same compound?
A: 13.2 µM (active)

Q: And the EC50 [7]?
A: 14 µM (active)
